Tests used:
[1] = Cytotoxicity against mouse C2C12 cells assessed as lethal dose; format: toxicity, cell-based; details: read-out: LD50 (the source's name)
[2] = system: Trypanosoma cruzi; assay: Antitrypanosomal activity against amastigotes form of Trypanosoma cruzi CA-I/72 infected in mouse C2C12 cells assessed as parasite infection level by DAPI staining based microscopic analysis; format: functional, organism-based; details: CA-I/72, C2C12
[3] = target: Cruzipain (Trypanosoma cruzi, UniProt P25779); assay: Inhibition of Trypanosoma cruzi cruzain using Z-FR-AMC as substrate preincubated for 10 mins followed by substrate addition by fluorimetric analysis
Cruzipain, sequence (P25779 whole entry): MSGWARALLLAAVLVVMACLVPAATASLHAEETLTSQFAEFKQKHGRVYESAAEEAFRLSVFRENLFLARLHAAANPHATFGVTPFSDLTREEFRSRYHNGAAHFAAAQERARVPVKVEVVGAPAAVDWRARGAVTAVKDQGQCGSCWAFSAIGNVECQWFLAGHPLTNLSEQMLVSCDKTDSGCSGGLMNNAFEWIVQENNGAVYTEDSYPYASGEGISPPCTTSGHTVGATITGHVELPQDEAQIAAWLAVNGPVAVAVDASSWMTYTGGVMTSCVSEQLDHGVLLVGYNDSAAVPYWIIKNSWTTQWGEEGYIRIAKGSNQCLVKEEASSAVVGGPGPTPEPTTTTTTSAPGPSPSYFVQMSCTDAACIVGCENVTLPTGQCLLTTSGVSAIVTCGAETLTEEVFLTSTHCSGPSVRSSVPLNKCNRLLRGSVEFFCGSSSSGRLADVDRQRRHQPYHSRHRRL

Structure (SMILES): COC1=CC(=O)N(C(=O)/C=C/[C@@H](NC(=O)[C@H](CC(C)C)NC(=O)[C@H](CC2CCCCC2)NC(=O)[C@H](C(C)C)N(C)C)C2CCCCC2)[C@H]1Cc1c[nH]c2ccccc12
- CC50 [1]: > 600 nM

Structure (SMILES): COC1=CC(=O)N(C(=O)/C=C/[C@H](C)NC(=O)[C@H](CC(C)C)NC(=O)[C@H](CC2CCCCC2)NC(=O)[C@H](C(C)C)N(C)C)[C@H]1Cc1c[nH]c2ccccc12
- CC50 [1]: > 600 nM

Structure (SMILES): COC1=CC(=O)N(C(=O)/C=C/[C@@H](CCc2ccccc2)NC(=O)[C@H](CC(C)C)NC(=O)[C@H](CC(C)C)NC(=O)[C@H](C(C)C)N(C)C)C1Cc1ccc(-c2ccc(OC)cc2)cc1 (some centres undefined)
- EC50 [2]: 19 nM
- CC50 [1]: > 600 nM
- IC50 [3]: 0.28 nM

Structure (SMILES): COC1=CC(=O)N(C(=O)/C=C/[C@H](CCc2ccccc2)NC(=O)[C@H](CC(C)C)NC(=O)[C@H](CC(C)C)NC(=O)[C@H](C(C)C)N(C)C)[C@H]1Cc1c[nH]c2ccccc12
- CC50 [1]: > 600 nM

Structure (SMILES): COC1=CC(=O)N(C(=O)/C=C/[C@H](C)NC(=O)[C@H](CC(C)C)NC(=O)[C@H](Cc2ccccc2)NC(=O)[C@H](C(C)C)N(C)C)[C@H]1Cc1c[nH]c2ccccc12
- CC50 [1]: > 600 nM

Structure (SMILES): COC1=CC(=O)N(C(=O)/C=C/[C@H](C)NC(=O)[C@H](CC2CCCCC2)NC(=O)[C@H](CC2CCCCC2)NC(=O)C2CCN(C)CC2)[C@H]1Cc1c[nH]c2ccccc12
- CC50 [1]: > 600 nM

Structure (SMILES): COC1=CC(=O)N(C(=O)/C=C/[C@H](CCc2ccccc2)NC(=O)[C@H](CC(C)C)NC(=O)[C@H](CC(C)C)NC(=O)C2CCN(C)CC2)C1Cc1ccc(-c2ccc(OC)cc2)cc1 (some centres undefined)
- EC50 [2]: 261 nM
- CC50 [1]: > 600 nM
- IC50 [3]: 0.26 nM

Structure (SMILES): COC1=CC(=O)N(C(=O)/C=C/[C@H](C)NC(=O)[C@H](CC(C)C)NC(=O)[C@H](CC(C)C)NC(=O)C2CCN(C)CC2)[C@H]1Cc1c[nH]c2ccccc12
- CC50 [1]: > 600 nM

Structure (SMILES): CC[C@H](C)[C@@H](C(=O)O[C@@H](CC(C)C)C(=O)N[C@@H](CC(C)C)C(=O)N[C@@H](C)/C=C/C(=O)N1C(=O)C=C(OC)[C@@H]1C)N(C)C [GALLINAMIDE A]
- CC50 [1]: > 600 nM
- IC50 [3]: 1.3 nM

Structure (SMILES): COC1=CC(=O)N(C(=O)/C=C/[C@H](CCc2ccccc2)NC(=O)[C@H](CC(C)C)NC(=O)[C@H](CC(C)C)NC(=O)C2CCN(C)CC2)C1Cc1ccc(-c2ccc3ccccc3c2)cc1 (some centres undefined)
- EC50 [2]: 521 nM
- CC50 [1]: > 600 nM
- IC50 [3]: 1.56 nM

Structure (SMILES): COC1=CC(=O)N(C(=O)/C=C/[C@@H](CCc2ccccc2)NC(=O)[C@H](CC(C)C)NC(=O)[C@H](CC(C)C)NC(=O)[C@H](C(C)C)N(C)C)C1Cc1ccc(-c2ccc(C(F)(F)F)cc2)cc1 (some centres undefined)
- EC50 [2]: 78 nM
- CC50 [1]: > 600 nM
- IC50 [3]: 0.68 nM

Structure (SMILES): COC1=CC(=O)N(C(=O)/C=C/[C@@H](CCc2ccccc2)NC(=O)[C@H](CC(C)C)NC(=O)[C@H](CC(C)C)NC(=O)[C@H](C(C)C)N(C)C)C1Cc1ccc(-c2ccc(C#N)cc2)cc1 (some centres undefined)
- EC50 [2]: 19 nM
- CC50 [1]: > 600 nM
- IC50 [3]: 0.11 nM

Structure (SMILES): COC1=CC(=O)N(C(=O)/C=C/[C@H](CCc2ccccc2)NC(=O)[C@H](CC(C)C)NC(=O)[C@H](CC(C)C)NC(=O)C2CCN(C)CC2)C1Cc1ccc(-c2ccccc2)cc1 (some centres undefined)
- EC50 [2]: 222 nM
- CC50 [1]: > 600 nM
- IC50 [3]: 0.4 nM

Structure (SMILES): COC1=CC(=O)N(C(=O)/C=C/[C@@H](CCc2ccccc2)NC(=O)[C@H](CC(C)C)NC(=O)[C@H](CC(C)C)NC(=O)[C@H](C(C)C)N(C)C)C1Cc1ccc(-c2ccc3ccccc3c2)cc1 (some centres undefined)
- EC50 [2]: 59 nM
- CC50 [1]: > 600 nM
- IC50 [3]: 0.69 nM

Structure (SMILES): COC1=CC(=O)N(C(=O)/C=C/[C@H](C)NC(=O)[C@H](CCc2ccccc2)NC(=O)[C@H](CC2CCCCC2)NC(=O)[C@H](C(C)C)N(C)C)[C@H]1Cc1c[nH]c2ccccc12
- CC50 [1]: > 600 nM

Structure (SMILES): COC1=CC(=O)N(C(=O)/C=C/[C@H](C)NC(=O)[C@H](CC(C)C)NC(=O)[C@H](CC(C)C)NC(=O)[C@H](C(C)C)N(C)C)[C@H]1Cc1c[nH]c2ccccc12
- CC50 [1]: > 600 nM

Structure (SMILES): COC1=CC(=O)N(C(=O)/C=C/[C@H](CCc2ccccc2)NC(=O)[C@H](CC(C)C)NC(=O)[C@H](CC(C)C)NC(=O)C2CCN(C)CC2)C1Cc1ccc(-c2ccc(C(F)(F)F)cc2)cc1 (some centres undefined)
- EC50 [2]: 420 nM
- CC50 [1]: > 600 nM
- IC50 [3]: 0.79 nM

Structure (SMILES): COC1=CC(=O)N(C(=O)/C=C/[C@H](CCc2ccccc2)NC(=O)[C@H](CC(C)C)NC(=O)[C@H](CC(C)C)NC(=O)C2CCN(C)CC2)C1Cc1ccc(-c2ccc(C#N)cc2)cc1 (some centres undefined)
- EC50 [2]: 423 nM
- CC50 [1]: > 600 nM
- IC50 [3]: 0.13 nM

Structure (SMILES): COC1=CC(=O)N(C(=O)/C=C/[C@H](C)NC(=O)[C@H](CC2CCCCC2)NC(=O)[C@H](CC(C)C)NC(=O)[C@H](C(C)C)N(C)C)[C@H]1Cc1c[nH]c2ccccc12
- CC50 [1]: > 600 nM

Structure (SMILES): COC1=CC(=O)N(C(=O)/C=C/[C@H](C)NC(=O)[C@H](CC(C)C)NC(=O)[C@H](CC2CCCCC2)NC(=O)C2CCN(C)CC2)[C@H]1Cc1c[nH]c2ccccc12
- CC50 [1]: > 600 nM

Structure (SMILES): COC1=CC(=O)N(C(=O)/C=C/[C@H](C)NC(=O)[C@H](CC2CCCCC2)NC(=O)[C@H](CC(C)C)NC(=O)C2CCN(C)CC2)[C@H]1Cc1c[nH]c2ccccc12
- CC50 [1]: > 600 nM

Structure (SMILES): COC1=CC(=O)N(C(=O)/C=C/[C@H](C)NC(=O)[C@H](CC2CCCCC2)NC(=O)[C@H](CC2CCCCC2)NC(=O)[C@H](C(C)C)N(C)C)[C@H]1Cc1c[nH]c2ccccc12
- CC50 [1]: > 600 nM

Structure (SMILES): CCCC[C@H]1O[C@@H]1/C=C/C=O
- CC50 [1]: > 600 nM
- IC50 [3]: 29.7 nM

Structure (SMILES): O=C(Cn1ccnc1[N+](=O)[O-])NCc1ccccc1 [BENZNIDAZOLE]
- EC50 [2]: 1910 nM
- CC50 [1]: > 600 nM

Structure (SMILES): COC1=CC(=O)N(C(=O)/C=C/[C@@H](CCc2ccccc2)NC(=O)[C@H](CC(C)C)NC(=O)[C@H](CC(C)C)NC(=O)[C@H](C(C)C)N(C)C)C1Cc1ccc(-c2ccccc2)cc1 (some centres undefined)
- EC50 [2]: 13 nM
- CC50 [1]: > 600 nM
- IC50 [3]: 0.12 nM

Structure (SMILES): COC1=CC(=O)N(C(=O)/C=C/[C@H](C)NC(=O)[C@H](CCc2ccccc2)NC(=O)[C@H](CC(C)C)NC(=O)[C@H](C(C)C)N(C)C)[C@H]1Cc1c[nH]c2ccccc12
- CC50 [1]: > 600 nM
